# In patent publication US8388986B2, “Use of cationic surfactants in cosmetic preparations” (priority 2001, dated 2013):
# Assays:
# [1] = test system: Aureobasidium pullulans ATCC 9348; experiment: minimum inhibitory concentration; assay type: cell-based; details: Fungi
# [2] = test system: Lactobacillus delbrueckii ssp lactis CECT 372; experiment: minimum inhibitory concentration; assay type: cell-based; details: Gram + Bacteria
# [3] = test system: Alcaligenes faecalis ATCC 8750; experiment: minimum inhibitory concentration; assay type: cell-based; details: Gram − Bacteria
# Aerobes = experiment: preservative efficacy (Antimicrobial Effectiveness Testing USP 24th Edition) in cosmetic formulations; assay type: cell-based; details: 0.20 g of LAE
# Method: (§1) This assay consists of the contamination of the protecting formulations with an inoculum mixture of 10^8 cfu/mL concentration, for each of the microorganisms, and the determination of the number of viable cells in the time. This inoculum mixture is composed of the following microorganisms:
# (§2) The cosmetic composition to be analysed is divided into sterile containers with 50 g of product for each flask. Each container is inoculated with 0.5 mL of inoculum (10^8 cfu/mL). The target concentration is 10^6 cfu/mL, approximately. All the containers are kept at a temperature between 20-25° C. and are protected from light.
# (§3) The level of the microbial contamination is checked at 0 hours, 7 days, 14 days and 28 days. The number of colonies is evaluated by dilution in buffer peptone with the appropriate neutraliser agent of the preservative. The culture media used for counting the microorganisms are: Soya triptone (35-37° C., 48 hours) for the determination of bacteria; Sabouraud agar with chloramphenicol for fungi and yeast (25° C., 3-5 days).
# (§4) According to Antimicrobial Effectiveness Testing USP 24th Edition, 1999 (pp. 1809-1811), an antimicrobial preservative is considered to be effective in topically used products made with aqueous bases or vehicles, non-sterile nasal products and emulsions, including those applied to mucous membranes, if: • Not less than 2.0 logarithm reduction from the initial calculated bacteria's count is reached at 14 days and no increase from the 14 days' count at 28 days is detected; and • No increase from the initial calculated count of yeast and moulds is observed.
# [4] = test system: Bordetella bronchiseptica ATCC 4617; experiment: minimum inhibitory concentration; assay type: cell-based; details: Gram − Bacteria
# Fungi = experiment: preservative efficacy (Antimicrobial Effectiveness Testing USP 24th Edition) in cosmetic formulations; assay type: cell-based, Aspergillus niger ATCC 16404; details: 0.20 g of LAE
# Method: as §1, §2, §3, §4
# [5] = Example 1, oil-in-water emulsion with non-ionic surfactant, 7 days
# [6] = Example 1, oil-in-water emulsion with non-ionic surfactant, 14 days
# [7] = Example 1, oil-in-water emulsion with non-ionic surfactant, Initial
# [8] = Example 2, oil-in-water emulsion with an ionic emulsifier, 7 days
# [9] = Example 2, oil-in-water emulsion with an ionic emulsifier, 14 days
# [10] = Example 2, oil-in-water emulsion with an ionic emulsifier, Initial
structure (smiles),measurement,setting,value
"CCCCCCCCCCCC(=O)N[C@@H](CCCN=C(N)N)C(=O)OCC.Cl [LAE, ethyl ester of the lauramide of the arginine monohydrochloride]",M.I.C.,[1],16 ppm
same,M.I.C.,[2],16 ppm
same,M.I.C.,[3],64 ppm
same,viable count With LAE,Aerobes; [5],3.1 · 10^3 cfu/mL
same,viable count With LAE,Aerobes; [6],3.3 · 10^2 cfu/mL
same,viable count With LAE,Aerobes; [7],1.1 · 10^6 cfu/mL
same,viable count With LAE,Aerobes; [8],1.6 · 10^4 cfu/mL
same,viable count With LAE,Aerobes; [9],6.5 · 10^2 cfu/mL
same,viable count With LAE,Aerobes; [10],2.7 · 10^6 cfu/mL
same,viable count With LAE,"Aerobes; Example 3, water in oil emulsion with non-ionic emulsifiers, 7 days",1.8 · 10^3 cfu/mL
same,viable count With LAE,"Aerobes; Example 3, water in oil emulsion with non-ionic emulsifiers, 14 days",<9.9 · 10^1 cfu/mL
same,viable count With LAE,"Aerobes; Example 3, water in oil emulsion with non-ionic emulsifiers, Initial",6.2 · 10^6 cfu/mL
same,viable count With LAE,"Aerobes; Example 4, aqueous solution with a surfactants' mixture (bath gels, disodium cocoamfoacetate), 7 days",5.8 · 10^3 cfu/mL
same,viable count With LAE,"Aerobes; Example 4, aqueous solution with a surfactants' mixture (bath gels, disodium cocoamfoacetate), 14 days",<9.9 · 10^1 cfu/mL
same,viable count With LAE,"Aerobes; Example 4, aqueous solution with a surfactants' mixture (bath gels, disodium cocoamfoacetate), Initial",3.3 · 10^6 cfu/mL
same,viable count With LAE,"Aerobes; Example 5, aqueous solution with a surfactants' mixture (bath gels, disodium lauryl sulfosuccinate), 7 days",4.8 · 10^2 cfu/mL
same,viable count With LAE,"Aerobes; Example 5, aqueous solution with a surfactants' mixture (bath gels, disodium lauryl sulfosuccinate), 14 days",1.3 · 10^2 cfu/mL
same,viable count With LAE,"Aerobes; Example 5, aqueous solution with a surfactants' mixture (bath gels, disodium lauryl sulfosuccinate), Initial",6.7 · 10^6 cfu/mL
same,viable count With LAE,"Aerobes; Example 6, hydroalcoholic gel (after-shaving lotions), 7 days",6.9 · 10^3 cfu/mL
same,viable count With LAE,"Aerobes; Example 6, hydroalcoholic gel (after-shaving lotions), 14 days",<9.9 · 10^1 cfu/mL
same,viable count With LAE,"Aerobes; Example 6, hydroalcoholic gel (after-shaving lotions), Initial",3.7 · 10^6 cfu/mL
same,viable count With LAE,"Aerobes; Example 7, facial tonic, 7 days",3.6 · 10^3 cfu/mL
same,viable count With LAE,"Aerobes; Example 7, facial tonic, 14 days",5.9 · 10^2 cfu/mL
same,viable count With LAE,"Aerobes; Example 7, facial tonic, Initial",2.7 · 10^6 cfu/mL
same,viable count With LAE,"Aerobes; Example 8, mask-up cleaner, 7 days",3.8 · 10^3 cfu/mL
same,viable count With LAE,"Aerobes; Example 8, mask-up cleaner, 14 days",6.7 · 10^2 cfu/mL
same,viable count With LAE,"Aerobes; Example 8, mask-up cleaner, Initial",4.5 · 10^6 cfu/mL
same,viable count With LAE,"Aerobes; Example 9, fluid oil-in-water emulsion with non-ionic surfactants (body oil), 7 days",7.6 · 10^3 cfu/mL
same,viable count With LAE,"Aerobes; Example 9, fluid oil-in-water emulsion with non-ionic surfactants (body oil), 14 days",<9.9 · 10^1 cfu/mL
same,viable count With LAE,"Aerobes; Example 9, fluid oil-in-water emulsion with non-ionic surfactants (body oil), Initial",4.5 · 10^6 cfu/mL
same,viable count With LAE,"Aerobes; Example 10, toothpaste formulation, 7 days",3.3 · 10^3 cfu/mL
same,viable count With LAE,"Aerobes; Example 10, toothpaste formulation, 14 days",8.0 · 10^2 cfu/mL
same,viable count With LAE,"Aerobes; Example 10, toothpaste formulation, Initial",4.5 · 10^6 cfu/mL
same,viable count With LAE,"Aerobes; Example 11, aqueous solution with surfactants (shampoos), 7 days",4.8 · 10^3 cfu/mL
same,viable count With LAE,"Aerobes; Example 11, aqueous solution with surfactants (shampoos), 14 days",7.0 · 10^2 cfu/mL
same,viable count With LAE,"Aerobes; Example 11, aqueous solution with surfactants (shampoos), Initial",3.3 · 10^6 cfu/mL
same,viable count With LAE,"Aerobes; Example 12, oil-in-water emulsion with non-ionic surfactants (face cream), 7 days",3.7 · 10^4 cfu/mL
same,viable count With LAE,"Aerobes; Example 12, oil-in-water emulsion with non-ionic surfactants (face cream), 14 days",1.9 · 10^3 cfu/mL
same,viable count With LAE,"Aerobes; Example 12, oil-in-water emulsion with non-ionic surfactants (face cream), Initial",1.1 · 10^6 cfu/mL
same,viable count With LAE,"Aerobes; Example 13, oil-in-water emulsion with non-ionic surfactants (sun protector, polysorbate 60), 7 days",8.4 · 10^3 cfu/mL
same,viable count With LAE,"Aerobes; Example 13, oil-in-water emulsion with non-ionic surfactants (sun protector, polysorbate 60), 14 days",7.5 · 10^2 cfu/mL
same,viable count With LAE,"Aerobes; Example 13, oil-in-water emulsion with non-ionic surfactants (sun protector, polysorbate 60), Initial",3.1 · 10^6 cfu/mL
same,viable count With LAE,"Aerobes; Example 14, oil-in-water emulsion with non-ionic surfactants (sun protector, cetyl dimethicone copolyol), 7 days",9.4 · 10^2 cfu/mL
same,viable count With LAE,"Aerobes; Example 14, oil-in-water emulsion with non-ionic surfactants (sun protector, cetyl dimethicone copolyol), 14 days",8.7 · 10^2 cfu/mL
same,viable count With LAE,"Aerobes; Example 14, oil-in-water emulsion with non-ionic surfactants (sun protector, cetyl dimethicone copolyol), Initial",1.4 · 10^6 cfu/mL
same,viable count With LAE,"Aerobes; Example 15, emulsion for hands care, 7 days",3.3 · 10^3 cfu/mL
same,viable count With LAE,"Aerobes; Example 15, emulsion for hands care, 14 days",<9.9 · 10^1 cfu/mL
same,viable count With LAE,"Aerobes; Example 15, emulsion for hands care, Initial",4.4 · 10^6 cfu/mL
same,M.I.C.,[4],128 ppm
same,viable count With LAE,Fungi; [5],<9.9 · 10^1 cfu/mL
same,viable count With LAE,Fungi; [6],<9.9 · 10^1 cfu/mL
same,viable count With LAE,Fungi; [7],1.7 · 10^4 cfu/mL
same,viable count With LAE,Fungi; [8],<9.9 · 10^1 cfu/mL
same,viable count With LAE,Fungi; [9],<9.9 · 10^1 cfu/mL
same,viable count With LAE,Fungi; [10],1.4 · 10^4 cfu/mL
